Source: US10646498B2, “Composition for preventing, alleviating or treating muscle diseases or improving muscular function” (AAT COSTECH CO., LTD., priority 2015, dated 2020)

Assays:
MyoD = MyoD mRNA expression in L6 muscle cells (RT-PCR), muscle differentiation; type: cell-based; details: fucosterol 1 and 10 μM, 6 days, vs 0.01% DMSO control, FIG. 3
Method: (§1) As muscle cells, L6 myoblasts (ATCC) were added to a 6-well plate at a density of 2×10^5 cells/mL together with DMEM (Hyclone) supplemented with 10% FBS (Hyclone). When the cell density reached approximately 80 to 85%, the medium contained in the wells was removed, and the fucosterol isolated and purified in Example 3 was dissolved at concentrations of 1 and 10 μM in DMEM (Hyclone) supplemented with 2% HS (Hyclone), and the cells were treated with the fucosterol to induce myotube differentiation. In this case, a group in which the cells were treated with 0.01% DMSO instead of the sample was used as the control. This procedure was carried out at an interval of 2 days for 6 days to differentiate the cells, and total RNA was isolated using a TRIzol reagent (Invitrogen, Carlsbad, Calif., USA). The isolated total RNA was quantified using NanoDrop 1000 (Thermo Fisher Scientific Inc., MA, USA). 16 μL of the quantified RNA was synthesized into cDNA using Reverse Transcriptase Premix (ELPIS-Biotech) and a PCR machine (Gene Amp PCR System 2700, Applied Biosystems, MA, USA) under conditions of 42° C. and 55 minutes and 70° C. and 15 minutes. […]

p-p70S6K = p-p70S6K protein expression in L6 muscle cells (Western blot); type: cell-based; details: fucosterol 1 and 10 μM, FIG. 2
Method: (§2) As muscle cells, L6 myoblasts (ATCC CRL-1458, Manassas, Va., USA) were added to a 6-well plate at a density of 2×10^5 cells/mL together with a Dulbecco's modified Eagle's medium (DMEM; Hyclone) supplemented with 10% fetal bovine serum (FBS; Hyclone, Logan, Utah, USA). […] In this case, a group in which the cells were treated with 0.01% DMSO instead of the sample was used as the control. This procedure was carried out at an interval of 2 days for 6 days to differentiate the cells, and the cells were then dissolved in an NP-40 buffer (ELPIS-Biotech, Daejeon, Korea) containing a proteinase inhibitor cocktail. The cells lysed in the buffer were transferred to a 1.5 ml tube, and centrifuged at 13,000 rpm for 10 minutes to collect only a supernatant. The supernatant was quantified using a Bradford method (Bradford, Bio-Rad Laboratories Inc., Hercules, Calif., USA). The quantified proteins were boiled for 5 minutes, and separated through 10% SDS-PAGE, and the separated proteins were transferred to a nitrocellulose membrane. A p-mTOR primary antibody (Cell Signaling Technology, Beverly, Mass., USA) was diluted with 2.5% bovine serum albumin (BSA) at a ratio of 1:1,000, and reacted with the proteins transferred to the nitrocellulose membrane at room temperature for 20 hours. […]

MuRF-1 = MuRF-1 mRNA expression in TNF-α-treated L6 muscle cells (RT-PCR), muscle protein degradation; type: cell-based; details: differentiated L6 muscle cells, 50 ng/mL TNF-α, fucosterol 1 and 10 μM, 6 hours, FIG. 6
Method: (§3) As muscle cells, L6 myoblasts (ATCC) were added to a 6-well plate at a density of 2×10^5 cells/mL together with DMEM (Hyclone) supplemented with 10% FBS (Hyclone). When the cell density reached approximately 80 to 85%, the medium contained in the wells was removed, and the cells were treated with DMEM (Hyclone) supplemented with 2% HS (Hyclone) to induce myotube differentiation. Cell differentiation was performed for a total of 6 days while replacing the medium with a fresh medium every 2 days. After the differentiation, the fucosterol isolated and purified in Example 3 was dissolved at concentrations of 1 and 10 μM in DMEM (Hyclone) supplemented with 50 ng/mL of tumor necrosis factor alpha (TNF-α; PeproTech, Rocky Hills, N.J., USA), and the cells were then treated with the fucosterol. After 6 hours, total RNA was isolated using a TRIzol reagent (Invitrogen). The isolated total RNA was quantified using NanoDrop 1000 (Thermo Fisher Scientific Inc., MA, USA). 16 μL of the quantified RNA was synthesized into cDNA using Reverse Transcriptase Premix (ELPIS-Biotech) and a PCR machine (Gene Amp PCR System 2700; Applied Biosystems) under conditions of 42° C. and 55 minutes and 70° C. and 15 minutes. […]

[1] = test system: Wistar rats with TNF-α-induced muscle atrophy; details: 300 mg/kg, 1344 h
Method: Five-week-old Wistar rats (Daehan Biolink, Korea) were adapted for one week, and fed 100 ng/g of TNF-α for 2 weeks to induce muscle atrophy. Thereafter, the rats were randomly divided into a total of 6 groups based on the weights thereof, each group consisting of 8 rats, which were then used in this experiment. […] In this case, a group in which TNF-α was added to the same amount of 0.25% carboxymethyl cellulose which the experimental group ingested was used as the control.
After the sample was administered for 8 weeks, muscles were incised from right lower calves of the rats, and weighed using a microbalance (Mettler PE160, USA).

atrogin-1 = atrogin-1 mRNA expression in TNF-α-treated L6 muscle cells (RT-PCR), muscle protein degradation; type: cell-based; details: differentiated L6 muscle cells, 50 ng/mL TNF-α, fucosterol 1 and 10 μM, 6 hours, FIG. 6
Method: as §3

p-mTOR = p-mTOR protein expression in L6 muscle cells (Western blot); type: cell-based; details: fucosterol 10 μM, treated every 2 days for 6 days, vs 0.01% DMSO control, FIG. 1
Method: As muscle cells, L6 myoblasts (ATCC CRL-1458, Manassas, Va., USA) were added to a 6-well plate at a density of 2×10^5 cells/mL together with a Dulbecco's modified Eagle's medium (DMEM; Hyclone) supplemented with 10% fetal bovine serum (FBS; Hyclone, Logan, Utah, USA). […] The supernatant was quantified using a Bradford method (Bradford, Bio-Rad Laboratories Inc., Hercules, Calif., USA). The quantified proteins were boiled for 5 minutes, and separated through 10% SDS-PAGE, and the separated proteins were transferred to a nitrocellulose membrane. […]
Muscle cells were treated with the ultra-high pressure extract of Sargassum fulvellum prepared in Example 1-6, the supercritical fluid extract of Sargassum fulvellum prepared in Example 1-7, the subcritical fluid extract of Sargassum fulvellum prepared in Example 1-8, the ultra-high pressure extract of Sargassum fusiforme prepared in Example 2-6, the supercritical fluid extract of Sargassum fusiforme prepared in Example 2-7, and the subcritical fluid extract of Sargassum fusiforme prepared in Example 2-8 at a concentration of 20 ppm in the same manner as in Example 4. A p-mTOR protein band was chromogenically developed using an ECL Western blotting detection reagent (Amersham, Tokyo, Japan), and a density of the chromogenically developed protein band was measured using a G;BOX EF imaging system (Syngene, Cambridge, UK). […]

myogenin = myogenin mRNA expression in L6 muscle cells (RT-PCR), muscle differentiation; type: cell-based; details: fucosterol 1 and 10 μM, 6 days, vs 0.01% DMSO control, FIG. 3
Method: as §1

p-4EBP1 = p-4EBP1 protein expression in L6 muscle cells (Western blot); type: cell-based; details: fucosterol 1 and 10 μM, FIG. 2
Method: as §2

SMILES: C/C=C(\CC[C@@H](C)[C@H]1CC[C@H]2[C@@H]3CC=C4C[C@@H](O)CC[C@]4(C)[C@H]3CC[C@]12C)C(C)C [Fucosterol, (3-beta,24E)-stigmasta-5,24(28)-dien-3-ol]
- mRNA expression of MyoD (MyoD): increased
- protein expression level of p-p70S6K (p-p70S6K): increased
- mRNA expression of MuRF-1 (MuRF-1): decreased
- Mean weight of calf muscles [1]: 522.1 ± 30.6 mg
- increase in weights of the muscles compared to the control [1]: 25.78%
- mRNA expression of atrogin-1 (atrogin-1): decreased
- expression level of p-mTOR (p-mTOR): increased
- mRNA expression of myogenin (myogenin): increased
- protein expression level of p-4EBP1 (p-4EBP1): increased
